Drawing on PubChem BioAssay AID256 (DTP/NCI, 2004), this text covers T/C for 22 molecules.

Toxic doses and inconclusive results are not listed. Non-standard residues stand in square brackets, D forms with d. Residues, ends and D or L forms follow the SMILES beside them. ξ: configuration not given here. ξIva = CCC(C)(N)C(=O)O

In the assay the test system is CD2F1 mice, L1210 leukemia ip, survival T/C. The assay is described as follows: NCI In Vivo Anticancer Drug Screen. Data for tumor model L1210 Leukemia (intraperitoneal) in CD2F1 (CDF1) mice. Conditions: higher = longer survival. An outline of the steps:
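Each value reflects a quotient of treated over vehicle control outcomes in mice with a transplanted tumor.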

Setting [1] is: endpoint: mean survival time, dose: 100.0 mg/kg/injection, schedule: Q04DX003 (ip), vehicle: saline with Tween-80.
Setting [2] is: endpoint: mean survival time, dose: 200.0 mg/kg/injection, schedule: Q04DX003 (ip), vehicle: saline with Tween-80.
Setting [3] is: endpoint: mean survival time, dose: 400.0 mg/kg/injection, schedule: Q04DX003 (ip), vehicle: saline with Tween-80.
[4] abbreviates: endpoint: mean survival time, dose: 100.0 mg/kg/injection, schedule: Q01DX009 (ip), vehicle: saline with Tween-80.
Setting [5] is: endpoint: mean survival time, dose: 200.0 mg/kg/injection, schedule: Q01DX009 (ip), vehicle: saline with Tween-80.
[6] abbreviates: endpoint: mean survival time, dose: 400.0 mg/kg/injection, schedule: Q01DX009 (ip), vehicle: saline with Tween-80.

Consider `O=C(O)C(O)C(O)C(O)CO.[Zn+2]` (configuration not stated), for which the T/C is, setting by setting: (endpoint: mean survival time, dose: 6.25 mg/kg/injection, schedule: Q01DX005 (ip), vehicle: saline with Tween-80) 108 % of control; (endpoint: mean survival time, dose: 12.5 mg/kg/injection, schedule: Q01DX005 (ip), vehicle: saline with Tween-80) 108 % of control; (endpoint: mean survival time, dose: 12.5 mg/kg/injection, schedule: Q04DX003 (ip), vehicle: saline) 95 % of control; (endpoint: mean survival time, dose: 25.0 mg/kg/injection, schedule: Q01DX005 (ip), vehicle: saline with Tween-80) 103 % of control; (endpoint: mean survival time, dose: 25.0 mg/kg/injection, schedule: Q04DX003 (ip), vehicle: saline) 95 % of control; (endpoint: mean survival time, dose: 50.0 mg/kg/injection, schedule: Q04DX003 (ip), vehicle: saline) 101 % of control.

In the case of `C/C(=N\O)c1ccc2c3c(ccc([N+](=O)[O-])c13)CC2`, the T/C runs as follows: under setting [1], 98 % of control; under setting [2], 98 % of control; under setting [3], 103 % of control.

As for `COc1ccc(OC)c(C2=CCCCCC2)c1OC`, the T/C runs as follows: under setting [1], 101 % of control; under setting [2], 101 % of control; under setting [3], 98 % of control.

Consider `CCOC(=O)CSC(=S)NC1CCCCC1`, for which the T/C under setting [1] is 101 % of control, the T/C under setting [2] is 98 % of control and the T/C under setting [3] was 95 % of control.

In the case of `CCC(C)(NC(=O)CN)C(=O)O` (configuration not stated) (H-Gly-[ξIva]-OH), the T/C by setting is: (endpoint: mean survival time, dose: 100.0 mg/kg/injection, schedule: Q04DX002 (ip), vehicle: saline) 90 % of control; (endpoint: mean survival time, dose: 200.0 mg/kg/injection, schedule: Q04DX002 (ip), vehicle: saline) 93 % of control; (endpoint: mean survival time, dose: 400.0 mg/kg/injection, schedule: Q04DX002 (ip), vehicle: saline) 90 % of control.

Regarding `O=C(O)C1(C(=O)O)CC2CC=CCC2C1` (configuration not stated), the T/C is, setting by setting: (endpoint: mean survival time, dose: 100.0 mg/kg/injection, schedule: Q01DX009 (ip), vehicle: saline) 98 % of control; (endpoint: mean survival time, dose: 200.0 mg/kg/injection, schedule: Q01DX009 (ip), vehicle: saline) 100 % of control; (endpoint: mean survival time, dose: 400.0 mg/kg/injection, schedule: Q01DX009 (ip), vehicle: saline) 87 % of control.

On to `O=C(Nc1ccccc1)OCC1CC2C=CC1C2` (configuration not stated), for which the T/C (endpoint: mean survival time, dose: 75.0 mg/kg/injection, schedule: Q01DX001 (ip), vehicle: saline with Tween-80) was 111 % of control; the T/C (endpoint: mean survival time, dose: 150.0 mg/kg/injection, schedule: Q01DX001 (ip), vehicle: saline with Tween-80) was 94 % of control; the T/C (endpoint: mean survival time, dose: 300.0 mg/kg/injection, schedule: Q01DX001 (ip), vehicle: saline with Tween-80) was 94 % of control.

Take `C#CC(C)(O)CCCCCC` (configuration not stated): the T/C was 113 % of control under setting [4] and 100 % of control under setting [5].

Take `O=c1cc(CCl)nc2c3ncn(C4OC(CO)C(O)C4O)c3ncn12` (configuration not stated): the T/C (endpoint: median survival time, dose: 12.5 mg/kg/injection, schedule: Q01DX005 (ip), vehicle: saline with Tween-80) is 105 % of control; the T/C (endpoint: median survival time, dose: 25.0 mg/kg/injection, schedule: Q01DX005 (ip), vehicle: saline with Tween-80) is 102 % of control; the T/C (endpoint: median survival time, dose: 50.0 mg/kg/injection, schedule: Q01DX005 (ip), vehicle: saline with Tween-80) was 98 % of control; the T/C (endpoint: median survival time, dose: 100.0 mg/kg/injection, schedule: Q01DX005 (ip), vehicle: saline with Tween-80) was 95 % of control; the T/C (endpoint: median survival time, dose: 200.0 mg/kg/injection, schedule: Q01DX005 (ip), vehicle: saline with Tween-80) was 98 % of control.

As for `COc1ccccc1C(=O)NS(=O)(=O)c1ccc(Cl)cc1`, the T/C reads like this: (endpoint: mean survival time, dose: 100.0 mg/kg/injection, schedule: Q01DX009 (ip), vehicle: acetone) 101 % of control; (endpoint: mean survival time, dose: 200.0 mg/kg/injection, schedule: Q01DX009 (ip), vehicle: acetone) 107 % of control.

In the case of `COc1ccccc1NC(=O)OCC#CCOC(=O)Nc1ccccc1OC`, the T/C (endpoint: mean survival time, dose: 100.0 mg/kg/injection, schedule: Q01DX009 (ip), vehicle: Klucel (hydroxypropylcellulose) (HPC)) is 91 % of control; the T/C (endpoint: mean survival time, dose: 200.0 mg/kg/injection, schedule: Q01DX009 (ip), vehicle: Klucel (hydroxypropylcellulose) (HPC)) is 91 % of control; the T/C (endpoint: mean survival time, dose: 400.0 mg/kg/injection, schedule: Q01DX009 (ip), vehicle: Klucel (hydroxypropylcellulose) (HPC)) was 92 % of control.

Consider `CC1(C)CCC(C)(C)c2c1ccc(O)c2Sc1c(O)ccc2c1C(C)(C)CCC2(C)C`, for which the T/C was 97 % of control under setting [4]; 95 % of control under setting [1]; 89 % of control under setting [5]; 97 % of control under setting [2]; 95 % of control under setting [6]; 91 % of control under setting [3].

Consider `NS(=O)(=O)c1ccc(Cl)c(Cl)c1`, for which the T/C is 108 % of control under setting [4] and 111 % of control under setting [5].

`CC(C)(C)c1cccc(OS(=O)(=O)c2cccc([N+](=O)[O-])c2)c1`: the T/C by setting is: under setting [4], 94 % of control; under setting [5], 94 % of control; under setting [6], 94 % of control.

In the case of `COc1ccc(/C=N\N2C(=O)/C(=C\c3ccc(OC)cc3)SC2=S)cc1`, the T/C under setting [1] was 97 % of control, the T/C under setting [2] was 93 % of control and the T/C under setting [3] is 89 % of control.

Regarding `CN(C)CCCN1c2ccccc2C(C)(C)c2ccccc21`, the T/C (endpoint: mean survival time, dose: 12.5 mg/kg/injection, schedule: Q01DX009 (ip), vehicle: saline with Tween-80) was 105 % of control; the T/C (endpoint: mean survival time, dose: 25.0 mg/kg/injection, schedule: Q01DX009 (ip), vehicle: saline with Tween-80) was 103 % of control; the T/C (endpoint: mean survival time, dose: 50.0 mg/kg/injection, schedule: Q01DX009 (ip), vehicle: saline with Tween-80) was 97 % of control; the T/C under setting [1] was 86 % of control; the T/C under setting [3] is 114 % of control.

As for `c1ccc2c(c1)Cn1c-2nc2ccccc21`, the T/C is 97 % of control under setting [1], 97 % of control under setting [2] and 94 % of control under setting [3].

Regarding `O=C(O)Cc1cc2c(cc1I)OCO2`, the T/C reads like this: under setting [1], 100 % of control; under setting [2], 95 % of control; under setting [3], 101 % of control.

`O=C(Nc1ccccc1Cl)c1ccc([N+](=O)[O-])cc1`: the T/C under setting [4] was 94 % of control; the T/C under setting [1] was 96 % of control; the T/C under setting [5] was 97 % of control; the T/C under setting [2] was 96 % of control; the T/C under setting [6] is 97 % of control; the T/C under setting [3] was 93 % of control.

In the case of `S=C=Nc1ccccn1`, the T/C is 86 % of control (endpoint: mean survival time, dose: 100.0 mg/kg/injection, schedule: Q04DX002 (ip), vehicle: saline with Tween-80) and 101 % of control (endpoint: mean survival time, dose: 200.0 mg/kg/injection, schedule: Q04DX002 (ip), vehicle: saline with Tween-80).

In the case of `CCOC(=O)C(C(=O)OCC)C1c2ccccc2C(=O)N(CCN(C)C)c2ccccc21` (configuration not stated), where the note is “endpoint: mean survival time, dose: 130.0 mg/kg/injection, schedule: Q01DX001 (ip), vehicle: saline”, the T/C was 103 % of control.

`NC(=S)N/N=C/c1ncccc1O`: the T/C by setting is: (endpoint: mean survival time, dose: 3.13 mg/kg/injection, schedule: Q03HX024 (ip), vehicle: saline) 117 % of control; (endpoint: mean survival time, dose: 50.0 mg/kg/injection, schedule: Q03HX024 (ip), vehicle: saline) 102 % of control; (endpoint: median survival time, dose: 21.8 mg/kg/injection, schedule: Q03HX008 (ip), vehicle: suspension in saline) 156 % of control; (endpoint: median survival time, dose: 32.5 mg/kg/injection, schedule: Q03HX008 (ip), vehicle: suspension in saline) 164 % of control; (endpoint: median survival time, dose: 45.0 mg/kg/injection, schedule: Q04DX003 (ip), vehicle: suspension in saline) 121 % of control; (endpoint: median survival time, dose: 48.5 mg/kg/injection, schedule: Q03HX008 (ip), vehicle: suspension in saline) 174 % of control. The T/C was 156 % of control (endpoint: median survival time, dose: 50.0 mg/kg/injection, schedule: Q01DX005 (ip), vehicle: saline); 109 % of control (endpoint: median survival time, dose: 72.4 mg/kg/injection, schedule: Q03HX008 (ip), vehicle: suspension in saline); 122 % of control (endpoint: median survival time, dose: 90.0 mg/kg/injection, schedule: Q04DX003 (ip), vehicle: suspension in saline); 150 % of control (endpoint: median survival time, dose: 100.0 mg/kg/injection, schedule: Q01DX005 (ip), vehicle: suspension in saline); 152 % of control (endpoint: median survival time, dose: 108.0 mg/kg/injection, schedule: Q04DX003 (ip), vehicle: suspension in saline); 86 % of control (endpoint: median survival time, dose: 180.0 mg/kg/injection, schedule: Q03HX024 (ip), vehicle: saline). Also, the T/C (endpoint: median survival time, dose: 200.0 mg/kg/injection, schedule: Q01DX005 (ip), vehicle: suspension in saline) is 117 % of control; the T/C (endpoint: median survival time, dose: 241.0 mg/kg/injection, schedule: Q04DX003 (ip), vehicle: suspension in saline) was 151 % of control; the T/C (endpoint: median survival time, dose: 360.0 mg/kg/injection, schedule: Q04DX003 (ip), vehicle: suspension in saline) is 161 % of control; the T/C (endpoint: median survival time, dose: 537.0 mg/kg/injection, schedule: Q04DX003 (ip), vehicle: suspension in saline) was 109 % of control; the T/C (endpoint: median survival time, dose: 720.0 mg/kg/injection, schedule: Q04DX003 (ip), vehicle: suspension in saline) is 119 % of control.
